pIC50: −log10 of the molar value. Where two headings read alike, the source gives them in different places.

Usually pIC50 stands for −log10 of the IC50, conventionally taken in molar units.

One experiment addresses T1, PI3Kγ (Homo sapiens, UniProt P48736).
T1 construct: host or cells: THP-1
Kind of experiment: PI3Kγ cellular assay in THP-1 cells (AKT pS473 AlphaLISA). Format: cell-based. In outline:
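Endogenous AKT S473 phosphorylation, detected by AlphaLISA in lysates, serves as the PI3Kγ activity read-out in stimulated, serum-starved THP-1 cells (1.8×10^5/well).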

The target in a further experiment is T2, PI3Kγ (p120γ) (Homo sapiens, UniProt P48736).
T2 construct: purchased Promega V1761
Kind of experiment: Inhibition of PI3K kinase activity (ADP Glo), PI3Kγ. The conditions noted are these: read-out: biochemical potency (PI3Kγ IC50). The gist of the method:
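IC50 values come from a 4-parameter nonlinear fit of ADP-Glo luminescence, which measures ADP produced as PIP2 is phosphorylated to PIP3. The p120γ enzyme (2× stock 8 nM) sat with compound 1 h at rt before substrate (2× stocks: 50 μM ATP, 0.1 mg/ml PIP2) was added. Phosphorylation then proceeded 60 min at rt.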
In general terms: ADP-Glo turns the ADP formed in a reaction into a luminescent signal.

Setting [1] is: Table 1, rhMCP-1 stimulated AKT pS473, read-out: cellular potency (PI3Kγ IC50).
The mark [2] stands for this setting: Table 2, rhMCP-1 stimulated AKT pS473, read-out: cellular potency (PI3Kγ IC50).
Setting [3] is: Table 6, rhMCP-1 stimulated AKT pS473, read-out: cellular potency (PI3Kγ IC50).
Where [4] appears, read: Table 3, rhMCP-1 stimulated AKT pS473, read-out: cellular potency (PI3Kγ IC50).

T1 sequence (P48736 whole entry): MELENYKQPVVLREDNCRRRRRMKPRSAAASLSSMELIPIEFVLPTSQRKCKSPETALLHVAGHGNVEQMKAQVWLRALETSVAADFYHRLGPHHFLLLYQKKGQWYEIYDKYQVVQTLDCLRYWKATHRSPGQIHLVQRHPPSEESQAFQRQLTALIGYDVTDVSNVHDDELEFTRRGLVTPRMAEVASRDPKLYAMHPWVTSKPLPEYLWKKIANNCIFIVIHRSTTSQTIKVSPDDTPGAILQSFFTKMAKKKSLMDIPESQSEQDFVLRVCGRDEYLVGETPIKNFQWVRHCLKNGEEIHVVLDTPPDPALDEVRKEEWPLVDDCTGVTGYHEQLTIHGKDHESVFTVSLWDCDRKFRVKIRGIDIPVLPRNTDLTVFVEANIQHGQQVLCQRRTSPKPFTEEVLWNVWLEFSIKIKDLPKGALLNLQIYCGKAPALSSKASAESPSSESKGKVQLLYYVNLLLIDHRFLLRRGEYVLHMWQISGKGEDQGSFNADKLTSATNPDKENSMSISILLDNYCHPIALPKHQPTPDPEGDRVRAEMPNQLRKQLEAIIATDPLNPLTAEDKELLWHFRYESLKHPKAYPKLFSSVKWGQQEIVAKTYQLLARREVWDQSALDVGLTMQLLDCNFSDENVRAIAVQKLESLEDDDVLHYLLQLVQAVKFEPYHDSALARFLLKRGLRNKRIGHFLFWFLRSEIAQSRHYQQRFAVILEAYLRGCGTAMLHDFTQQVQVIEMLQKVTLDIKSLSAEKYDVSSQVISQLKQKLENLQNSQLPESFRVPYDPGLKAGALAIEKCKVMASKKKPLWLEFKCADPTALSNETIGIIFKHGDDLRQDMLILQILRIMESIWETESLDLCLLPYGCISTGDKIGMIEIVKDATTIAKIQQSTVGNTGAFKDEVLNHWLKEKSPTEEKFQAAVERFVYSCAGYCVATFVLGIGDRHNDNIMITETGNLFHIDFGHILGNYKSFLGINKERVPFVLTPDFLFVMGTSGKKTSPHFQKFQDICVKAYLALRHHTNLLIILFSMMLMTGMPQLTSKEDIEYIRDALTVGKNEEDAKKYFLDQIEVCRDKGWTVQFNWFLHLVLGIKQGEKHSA
T2 sequence (P48736 whole entry): as above

As for `CC[C@H](N1Cc2cc(-c3ccn4nc(N)c(C(=O)N[C@H](C)CO)c4n3)cc(Cl)c2C1=O)C(F)(F)F` [Example 164, 2-Amino-5-{7-chloro-1-oxo-2-[(2S)-1,1,1-trifluorobutan-2-yl]-2,3-dihydro-1H-isoindol-5-yl}-N-[(2R)-1-hydroxypropan-2-yl]pyrazolo[1,5-a]pyrimidine-3-carboxamide], the pIC50 at PI3Kγ (setting [1]) was more than 7.00; at PI3Kγ (p120γ) (Table 1, p120γ) it was more than 7.00.
Take `Cc1cc(-c2ccn3nc(N)c(C(=O)NC[C@H]4C[C@@H](O)C4)c3n2)cc2c1C(=O)N([C@@H](C)C1CC1)C2` [Example 215]: the pIC50 is 6.00 to 7.00 on PI3Kγ (setting [2]) and more than 7.00 at PI3Kγ (p120γ) (Table 2, p120γ).
The like results for `Cc1cc(-c2ccn3nc(N)c(C(=O)NC(C)CO)c3n2)cc2c1C(=O)N([C@H](C)c1ccncc1)C2` (some centres unmarked) [Example 330] were, in that order, less than 6.00 and more than 7.00.
Take `C[C@@H](C1CC1)N1Cc2cc(-c3ccn4nc(N)c(C(=O)NC5CC5)c4n3)cc(S(=O)(=O)CC3CC3)c2C1=O` [Example 135, 2-Amino-N-cyclopropyl-5-{2-[(1S)-1-cyclopropylethyl]-7-cyclopropylmethanesulfonyl-1-oxo-2,3-dihydro-1H-isoindol-5-yl}pyrazolo[1,5-a]pyrimidine-3-carboxamide]: the pIC50 was more than 7.00 on PI3Kγ (setting [1]) and more than 7.00 on PI3Kγ (p120γ) (Table 1, p120γ).
For `Cc1cc(-c2ccn3nc(N)c(C(=O)NC4(c5ccccc5)CC4)c3n2)cc2c1C(=O)N([C@@H](C)C1CC1)C2` [Example 281], the pIC50 is less than 6.00 at PI3Kγ (setting [2]) and more than 7.00 on PI3Kγ (p120γ) (Table 2, p120γ).
Turning to `Cc1cc(-c2ccn3nc(N)c(C(=O)NC4(C)CC4)c3n2)cc2c1C(=O)N([C@@H](C)C1CC1)C2` [Example 242], the pIC50 at PI3Kγ (setting [2]) is 6.00 to 7.00; at PI3Kγ (p120γ) (Table 2, p120γ), more than 7.00.
The like results for `Cc1cc(-c2ccn3nc(N)c(C(=O)NC4(C(N)=O)CC4)c3n2)cc2c1C(=O)N([C@@H](C)C1CC1)C2` [Example 247] were, in that order, 6.00 to 7.00 and more than 7.00.
Take `Cc1cc(-c2ccn3nc(N)c(C(=O)NC[C@H]4CCCO4)c3n2)cc2c1C(=O)N([C@@H](C)C1CC1)C2` [Example 269]: the pIC50 at PI3Kγ (setting [2]) is 6.00 to 7.00; on PI3Kγ (p120γ) (Table 2, p120γ) it was more than 7.00.
Regarding `Cc1cc(-c2ccn3nc(N)c(C(=O)N4CCOCC4)c3n2)cc2c1C(=O)N(C(C)C1CC1)C2` (centres unmarked) [Example 280], the pIC50 is less than 6.00 on PI3Kγ (setting [2]) and more than 7.00 at PI3Kγ (p120γ) (Table 2, p120γ).
On to `COCCS(=O)(=O)Nc1cc(-c2ccn3nc(N)c(C(=O)NC4CC4)c3n2)cc2c1C(=O)N([C@@H](C)C1CC1)C2` [Example 113, 2-Amino-N-cyclopropyl-5-{2-[(1S)-1-cyclopropylethyl]-7-(2-methoxyethanesulfonamido)-1-oxo-2,3-dihydro-1H-isoindol-5-yl}pyrazolo[1,5-a]pyrimidine-3-carboxamide], for which the pIC50 at PI3Kγ (setting [1]) was more than 7.00; on PI3Kγ (p120γ) (Table 1, p120γ), more than 7.00.
Consider `Cc1cc(-c2ccn3nc(N)c(C(=O)N[C@@H]4CCOc5ccccc54)c3n2)cc2c1C(=O)N([C@@H](C)C1CC1)C2` [Example 285], for which the pIC50 is less than 6.00 on PI3Kγ (setting [2]) and more than 7.00 on PI3Kγ (p120γ) (Table 2, p120γ).
Turning to `C[C@@H](C1CC1)N1Cc2cc(-c3ccn4nc(N)c(C(=O)N[C@H]5C[C@@](C)(O)C5)c4n3)cc(N3CC[C@@H](O)C3)c2C1=O` [Example 432], the negative logarithm of the IC50 (pIC50) on PI3Kγ (setting [3]) was 6.00 to 7.00; on PI3Kγ (p120γ) (Table 6, p120γ), more than 7.00.
Turning to `C[C@@H](C1CC1)N1Cc2cc(-c3ccn4nc(N)c(C(=O)Nc5ccc(N)nc5)c4n3)cc(OC(F)(F)F)c2C1=O` [Example 46, 2-[(S)-1-Cyclopropylethyl]-5-{2-amino-3-[(6-amino-3-pyridylamino)carbonyl]-1,4,7a-triaza-5-indenyl}-7-trifluoromethoxy-1-isoindolinone], the pIC50 was more than 7.00 on PI3Kγ (setting [1]) and more than 7.00 at PI3Kγ (p120γ) (Table 1, p120γ).
As to `CC[C@H](N1Cc2cc(-c3ccn4nc(N)c(C(=O)NC5(C)COC5)c4n3)cc(NS(C)(=O)=O)c2C1=O)C(F)(F)F` [Example 125, 2-Amino-5-{7-methanesulfonamido-1-oxo-2-[(2S)-1,1,1-trifluorobutan-2-yl]-2,3-dihydro-1H-isoindol-5-yl}-N-(3-methyloxetan-3-yl)pyrazolo[1,5-a]pyrimidine-3-carboxamide], the pIC50 at PI3Kγ (setting [1]) is more than 7.00; at PI3Kγ (p120γ) (Table 1, p120γ), more than 7.00.
For `C[C@@H](C1CC1)N1Cc2cc(-c3ccn4nc(N)c(C(=O)N[C@H]5CCC[C@@H](N)C5)c4n3)cc(OC(F)(F)F)c2C1=O` [Example 426], the pIC50 is 6.00 to 7.00 on PI3Kγ (setting [3]) and more than 7.00 at PI3Kγ (p120γ) (Table 6, p120γ).
Turning to `Cc1cc(-c2ccn3nc(N)c(C(=O)NCC4COC4)c3n2)cc2c1C(=O)N([C@@H](C)C1CC1)C2` [Example 226], the pIC50 was 6.00 to 7.00 at PI3Kγ (setting [2]) and more than 7.00 at PI3Kγ (p120γ) (Table 2, p120γ).
For the molecule `C[C@@H](C1CC1)N1Cc2cc(-c3ccn4nc(N)c(C(=O)N[C@H]5CCC[C@@H](N)C5)c4n3)cc(C(F)(F)F)c2C1=O` [Example 366], the pIC50 was less than 6.00 at PI3Kγ (setting [4]) and more than 7.00 on PI3Kγ (p120γ) (Table 3, p120γ).
As for `C[C@@H](C1CC1)N1Cc2cc(-c3ccn4nc(N)c(C(=O)NC5(CO)CC5)c4n3)cc(C(F)(F)F)c2C1=O` [Example 342], the negative logarithm of the IC50 (pIC50) is 6.00 to 7.00 on PI3Kγ (setting [4]) and more than 7.00 on PI3Kγ (p120γ) (Table 3, p120γ).
For the molecule `Cc1cc(-c2ccn3nc(N)c(C(=O)N[C@H]4CC[C@](C)(O)CC4)c3n2)cc2c1C(=O)N([C@@H](C)C1CC1)C2` [Example 7, 2-Amino-5-{2-[(1S)-1-cyclopropylethyl]-7-methyl-1-oxo-2,3-dihydro-1H-isoindol-5-yl}-N-[trans-4-hydroxy-4-methylcyclohexyl]pyrazolo[1,5-a]pyrimidine-3-carboxamide], the pIC50 is more than 7.00 at PI3Kγ (setting [1]) and more than 7.00 at PI3Kγ (p120γ) (Table 1, p120γ).
As to `C[C@@H](C1CC1)N1Cc2cc(-c3ccn4nc(N)c(C(=O)N[C@H]5CC[C@H](C6(O)CC6)CC5)c4n3)cc(NS(C)(=O)=O)c2C1=O` [Example 92, 2-Amino-5-{2-[(1S)-1-cyclopropylethyl]-7-methanesulfonamido-1-oxo-2,3-dihydro-1H-isoindol-5-yl}-N-[trans-4-(1-hydroxycyclopropyl)cyclohexyl]pyrazolo[1,5-a]pyrimidine-3-carboxamide], the pIC50 at PI3Kγ (setting [1]) is more than 7.00; on PI3Kγ (p120γ) (Table 1, p120γ), more than 7.00.
As to `COc1ccccc1NC(=O)c1c(N)nn2ccc(-c3cc4c(c(NS(C)(=O)=O)c3)C(=O)N([C@@H](C)C3CC3)C4)nc12` [Example 398], the pIC50 is less than 6.00 at PI3Kγ (AKT pS473, read-out: cellular potency (PI3Kγ IC50)) and more than 7.00 at PI3Kγ (p120γ).
Regarding `Cc1cc(-c2ccn3nc(N)c(C(=O)NC4CC4)c3n2)cc2c1C(=O)N(C(C)C)C2` [Example 304], the pIC50 was 6.00 to 7.00 on PI3Kγ (setting [2]) and more than 7.00 on PI3Kγ (p120γ) (Table 2, p120γ).
In the case of `Cc1cc(-c2ccn3nc(N)c(C(=O)NC4(CO)CC4)c3n2)cc2c1C(=O)N([C@@H](C)C1CC1)C2` [Example 246], the pIC50 at PI3Kγ (setting [2]) was 6.00 to 7.00; on PI3Kγ (p120γ) (Table 2, p120γ), more than 7.00.
On to `CC[C@H](N1Cc2cc(-c3ccn4nc(N)c(C(=O)NC5CC5)c4n3)cc(NS(C)(=O)=O)c2C1=O)C(F)(F)F` [Example 124, 2-Amino-N-cyclopropyl-5-{7-methanesulfonamido-1-oxo-2-[(2S)-1,1,1-trifluorobutan-2-yl]-2,3-dihydro-1H-isoindol-5-yl}pyrazolo[1,5-a]pyrimidine-3-carboxamide], for which the pIC50 on PI3Kγ (setting [1]) was more than 7.00; on PI3Kγ (p120γ) (Table 1, p120γ), more than 7.00.
In the case of `CCS(=O)(=O)c1cc(-c2ccn3nc(N)c(C(=O)NC4CC4)c3n2)cc2c1C(=O)N([C@@H](C)C1CC1)C2` [Example 133, 2-Amino-N-cyclopropyl-5-{2-[(1S)-1-cyclopropylethyl]-7-(ethanesulfonyl)-1-oxo-2,3-dihydro-1H-isoindol-5-yl}pyrazolo[1,5-a]pyrimidine-3-carboxamide], the pIC50 was more than 7.00 at PI3Kγ (setting [1]) and more than 7.00 at PI3Kγ (p120γ) (Table 1, p120γ).
As to `Cc1cc(-c2ccn3nc(N)c(C(=O)N[C@H](C)C4CC4)c3n2)cc2c1C(=O)N([C@@H](C)C1CC1)C2` [Example 278], the pIC50 at PI3Kγ (setting [2]) was less than 6.00; at PI3Kγ (p120γ) (Table 2, p120γ) it was more than 7.00.
Consider `C[C@@H](C1CC1)N1Cc2cc(-c3ccn4nc(N)c(C(=O)NCc5cccnc5)c4n3)cc(OC(F)(F)F)c2C1=O` [Example 414], for which the pIC50 on PI3Kγ (setting [3]) was 6.00 to 7.00; on PI3Kγ (p120γ) (Table 6, p120γ) it was more than 7.00.
On to `CCN1Cc2cc(-c3ccn4nc(N)c(C(=O)NC5CC5)c4n3)cc(C)c2C1=O` [Example 305], for which the pIC50 at PI3Kγ (setting [2]) was 6.00 to 7.00; on PI3Kγ (p120γ) (Table 2, p120γ), more than 7.00.
On to `Cc1cc(-c2ccn3nc(N)c(C(=O)NC4COC4)c3n2)cc2c1C(=O)N(C(C)(C)CO)C2` [Example 315], for which the pIC50 on PI3Kγ (setting [2]) is 6.00 to 7.00; at PI3Kγ (p120γ) (Table 2, p120γ), more than 7.00.
On to `Cc1cc(-c2ccn3nc(N)c(C(=O)NCc4cnn(C)c4)c3n2)cc2c1C(=O)N([C@@H](C)C1CC1)C2` [Example 214], for which the pIC50 at PI3Kγ (setting [2]) is 6.00 to 7.00; on PI3Kγ (p120γ) (Table 2, p120γ), more than 7.00.
With `C[C@H](CO)NC(=O)c1c(N)nn2ccc(-c3cc4c(c(C(F)(F)F)c3)C(=O)N([C@@H](C)C3CC3)C4)nc12` [Example 50, 5-(3-{[(R)-2-Hydroxy-1-methylethylamino]carbonyl}-2-amino-1,4,7a-triaza-5-indenyl)-2-[(S)-1-cyclopropylethyl]-7-(trifluoromethyl)-1-isoindolinone], the pIC50 was more than 7.00 at PI3Kγ (setting [1]) and more than 7.00 at PI3Kγ (p120γ) (Table 1, p120γ).

The values are drawn from patent US20230024302A1, “2,3,5-TRISUBSTITUTED PYRAZOLO[1,5-A]PYRIMIDINE COMPOUNDS” (Arcus Biosciences, Inc., priority 2019, published 2023).
